Like-named read-outs stand apart in the source and are kept apart here. One block for each compound: values may come before it.
Columns and labels:
[1] = system: VEGF dependent retinal vascular development; assay: In vivo assay of retinal vascular development in neonatal rats; design: species or system rat
Method: The development of the retinal vascular in rats occurs from postnatal day 1 to postnatal day 14 (P1-P14). […] To assess the ability of specific compounds to inhibit the activity of VEGF in vivo, compounds were formulated in an appropriate vehicle, usually 50% polyethylene glycol, average molecular weight 400 daltons, and 50% solution of 300 mM sucrose in deionized water. […] Six days after the intravitreal injection, the animals were sacrificed and the retinas dissected free from the remaining ocular tissue. […] The individual retinas are then flat-mount onto glass slides and examined to determine the extent of vascularization. […] The amount of vessel regression was used to assess the relative potency of the compounds after in vivo administration.
For more quantitative analysis of regression, images of ADPase-stained, flat-mounted retinas were captured with a digital camera attached to a dissecting microscope. Retinal images were then imported into an image analysis software (Image Pro Plus 4.0, Media Cybernetics, Silver Spring, MD). The software was employed to determine the percentage of the area of the retina that contained stained vessels. This value for the experimental eye was compared to that measured for the vehicle injected, contralateral eye from the same animal. The reduction in the vascular area seen in the eye that received compound as compared to the vehicle-injected eye was then expressed as the "percent regression" for that sample.

[2] = for AUCleast: mouse, in vivo, pH 2.3
in vivo = settings: mouse, plasma, pH 2.3
in vitro = in vitro ADME, human; settings: 2 h
Summary of the method: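 HLM diluted to 5 mg/mL in 100 mM KPO4, preincubated 10 min at 37 °C with NADPH-regenerating system. Compound (5 µM final) incubated at 37 °C in triplicate, sampled at 0 and 2 h into ice-cold acetonitrile, then LC-MS analysis.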

human FGF-R1 = human FGF-R1 (Homo sapiens, UniProt P11362, C488A/C584S/L457V); assay: FGF-R spectrophotometric assay; format: biochemical; settings: Table 1; compound concentration 1 µM; read-out: FGF-P* (% inhibition)
Method: The spectrophotometric assay was carried out as described above for VEGF-R2, except for the following changes in concentration: FGF-R = 50 nM, ATP = 2 mM, and poly(E4Y1) =15 mM.

LCK tyrosine kinase = LCK tyrosine kinase (Homo sapiens, UniProt P06239, C224D/P223M); assay: LCK spectrophotometric assay; format: biochemical; settings: Table 1; compound concentration 1 µM; read-out: Lck-P* (% inhibition)
Method: The spectrophotometric assay was carried out as described above for VEGF-R2, except for the following changes in concentration: LCK = 60 nM, MgCl2 = 0 mM, poly(E4Y1) = 20 mM.

[3] = biological target: unphosphorylated VEGF-R2Δ50 (Homo sapiens, UniProt P35968, DEL940-989/E990V); assay: biochemical; settings: read-out: FLVK ** (% inhibition)
[4] = system: human umbilical vein endothelial cells (HUVEC); assay: HUVEC proliferation assay (VEGF-stimulated, MTT); format: cell-based; settings: Homo sapiens, HUVEC, Table 1
[5] = IP, 25 mg/kg, vehicle PEG400:H2O pH 2.3 30:70
[6] = PO, 50 mg/kg, vehicle PEG400:H2O pH 2.3 30:70
[7] = Model P8, intravitreal, 5 mg/ml, vehicle PEG/water 50:50
[8] = PO, 50 mg/kg, vehicle PEG400:H2O pH 2.3 60:40
[9] = + albumin, read-out: HUVEC + albumin IC50
[10] = human liver microsomes, 5 µM test compound, 37 °C

human FGF-R1, sequence (P11362 456-766 L457V/C488A/C584S): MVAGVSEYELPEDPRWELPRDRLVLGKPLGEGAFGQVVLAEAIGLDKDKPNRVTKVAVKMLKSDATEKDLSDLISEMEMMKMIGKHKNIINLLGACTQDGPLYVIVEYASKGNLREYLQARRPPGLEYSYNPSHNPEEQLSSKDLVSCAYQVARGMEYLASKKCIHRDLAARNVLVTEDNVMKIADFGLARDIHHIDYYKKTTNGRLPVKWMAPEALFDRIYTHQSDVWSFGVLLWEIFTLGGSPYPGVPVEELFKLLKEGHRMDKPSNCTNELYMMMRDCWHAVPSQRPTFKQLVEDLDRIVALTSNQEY
unphosphorylated VEGF-R2Δ50, sequence (P35968 with tags, fused parts or gaps DEL940-989/E990V limits assumed): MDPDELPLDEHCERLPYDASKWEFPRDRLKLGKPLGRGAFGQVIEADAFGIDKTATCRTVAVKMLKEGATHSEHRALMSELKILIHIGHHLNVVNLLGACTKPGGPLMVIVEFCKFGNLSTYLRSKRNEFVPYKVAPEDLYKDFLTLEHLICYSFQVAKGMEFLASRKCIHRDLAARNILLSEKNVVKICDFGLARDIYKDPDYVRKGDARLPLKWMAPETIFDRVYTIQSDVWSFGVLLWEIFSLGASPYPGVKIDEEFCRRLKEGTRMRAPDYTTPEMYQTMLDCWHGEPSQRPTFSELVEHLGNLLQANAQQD
LCK tyrosine kinase, sequence (P06239 223-509 P223M/C224D): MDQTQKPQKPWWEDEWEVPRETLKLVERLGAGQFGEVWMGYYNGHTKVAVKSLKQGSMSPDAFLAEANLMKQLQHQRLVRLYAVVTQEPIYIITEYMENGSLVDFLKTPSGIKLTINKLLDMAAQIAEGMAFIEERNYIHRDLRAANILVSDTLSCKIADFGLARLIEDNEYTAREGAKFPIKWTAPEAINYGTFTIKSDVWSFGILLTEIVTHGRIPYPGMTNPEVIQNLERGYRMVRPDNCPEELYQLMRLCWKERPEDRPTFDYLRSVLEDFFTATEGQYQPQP

SMILES: CCn1nc(C)cc1C(=O)Nc1cccc(C(=O)c2ccc3c(/C=C/c4ccccn4)n[nH]c3c2)c1 [41 (a)]
- % Inhibition ([1]; Model P8, intravitreal, 1 mg/ml, vehicle PEG/water 50:50): 4%
- T1/2 [2, 5]: 2.9 h
- T1/2 [2, 6]: 3.4 h
- AUC (in vivo; ip, 25 mg/kg): 92800 ng·h/mL
- AUC (in vivo; po, 50 mg/kg): 49000 ng·h/mL

SMILES: CC(=O)c1ccc(C(=O)Nc2cccc(C(=O)c3ccc4c(/C=C/c5ccccn5)n[nH]c4c3)c2)s1 [41 (e)]
- % Inhibition [1, 7]: 8%
- T1/2 ([2]; IP, 25 mg/kg, vehicle PEG400:H2O pH 2.3 60:40): 1.6 h
- Cmin (7 hr conc.) [2, 8]: 7 ng/mL
- T1/2 [2, 8]: 1.6 h
- AUC (in vivo; ip, 25 mg/kg): 4900 ng·h/mL
- AUC (in vivo; po, 50 mg/kg): 302 ng·h/mL

SMILES: CC1CC1C(=O)Nc1cccc(C(=O)c2ccc3c(/C=C/c4ccccn4)n[nH]c3c2)c1 (stereo not drawn) [41 (h)]
- % Inhibition ([1]; Model P8, intravitreal, 5 mg/ml, vehicle PEG/water 70:30): 0%
- T1/2 [2, 5]: 1.2 h
- Cmin (7 hr conc.) [2, 6]: 7 ng/mL
- T1/2 [2, 6]: 0.7 h
- AUC (in vivo; ip, 25 mg/kg): 26900 ng·h/mL
- AUC (in vivo; po, 50 mg/kg): 4680 ng·h/mL

SMILES: O=C(c1cccc(NC(=O)c2ccc(Cl)s2)c1)c1ccc2c(/C=C/c3ccccn3)n[nH]c2c1 [41 (o)]
- % Inhibition [1, 7]: 2%
- T1/2 [2, 6]: 1.7 h
- AUC (in vivo; po, 50 mg/kg): 14700 ng·h/mL

SMILES: Cc1cc(C(=O)Nc2cccc(C(=O)c3ccc4c(/C=C/c5ccccn5)n[nH]c4c3)c2)n(C)n1 [41 (p)]
- % Inhibition [1, 7]: 35%
- T1/2 [2, 5]: 5.5 h
- AUC (in vivo; ip, 25 mg/kg): 4150 ng·h/mL

SMILES: CCCn1nc(C)cc1C(=O)Nc1cccc(C(=O)c2ccc3c(/C=C/c4ccccn4)n[nH]c3c2)c1 [41 (r)]
- Initial Evaluation [1, 7]: +/++ var
- AUCleast ([2]; ip, 25 mg/kg): > 23752 ng·h/mL
- AUCleast ([2]; po, 50 mg/kg): > 17789 ng·h/mL

SMILES: C#CCNC(=O)c1ccccc1Nc1ccc2c(/C=C/c3ccccn3)n[nH]c2c1 [Example 39(b), 6-[2-(Prop-2-ynylcarbamoyl)phenylamino]-3-E-[2-(pyridin-2-yl)ethenyl]-1H-indazole]
- % remain (HLM, 2 h) (in vitro; human, microsomes, 5 µM): 67%
- % Inhibition [1, 7]: 9%

SMILES: Cc1cc(C(=O)Nc2cc(Nc3ccc4c(/C=C/c5ccccn5)n[nH]c4c3)ccc2F)n(C)n1 [Example 49(a), 6-[N-(3-((1,3-Dimethyl-1H-pyrazol-5-yl)carboxamido)-4-fluorophenyl)amino]-3-E-[2-(pyridin-2-yl)ethenyl]-1H-indazole]
- % Inhibition [1, 7]: 54%

SMILES: Cc1cc(C(=O)Nc2cc(Nc3ccc4c(/C=C/c5ccccn5)n[nH]c4c3)ccc2C)n(C)n1 [Example 49(b), 6-[N-(3-((1,3-Dimethyl-1H-pyrazol-5-yl)carboxamido)-4-methylphenyl)amino]-3-E-[2-(pyridin-2-yl)ethenyl]-1H-indazole]
- inhibition at 1 µM (human FGF-R1): 80%
- inhibition at 1 µM (LCK tyrosine kinase): 9%
- % Inhibition [1, 7]: 5%
- inhibition at 0.05 µM [3]: 98%

SMILES: CS(=O)(=O)c1ccc(C(=O)Nc2cccc(Oc3ccc4c(/C=C/c5ccccn5)n[nH]c4c3)c2)s1 [Reference Example 31(c), 6-[3-((5-methylsulfonylthien-2-yl)carboxamido)phenoxy]-3-E-[2-(pyridin-2-yl)ethenyl]-1H-indazole]
- inhibition at 1 µM (human FGF-R1): 98%
- inhibition at 1 µM (LCK tyrosine kinase): 81%
- IC50 [4, 9]: 11.4 nM
- % remain (HLM, 2 h) (in vitro; [10]): 87%
- Initial Evaluation [1, 7]: +/++ var

SMILES: O=C(Nc1cccc(Oc2ccc3c(/C=C/c4c[nH]cn4)n[nH]c3c2)c1)c1ccccc1 [Reference Example 32(a), 6-[3-benzamidophenoxy]-3-E-[2-(1H-imidazol-4-yl)ethenyl]-1H-indazole]
- inhibition at 1 µM (human FGF-R1): 96%
- inhibition at 1 µM (LCK tyrosine kinase): 86%
- IC50 [4, 9]: 4.5 nM
- IC50 ([4]; read-out: HUVEC IC50): 0.16 nM
- % Inhibition ([1]; Model P9, intravitreal, 5 mg/ml, vehicle PEG/water 50:50): 20%
- AUC (in vivo; ip, 25 mg/kg): > 20600 ng·h/mL
- AUC (in vivo; po, 50 mg/kg): 4190 ng·h/mL

SMILES: O=C(NCC(F)(F)F)c1ccccc1Sc1ccc2c(/C=C/c3ccccn3)n[nH]c2c1 [Reference Example 33(f), 6-[2-(2,2,2-trifluoroethylcarbamoyl)phenylsulfanyl]-3-E-[2-(pyridin-2-yl)ethenyl]-1H-indazole]
- IC50 [4, 9]: 17 nM
- % remain (HLM, 2 h) (in vitro; [10]): 31%
- % Inhibition [1, 7]: 20%

SMILES: CCCNC(=O)c1ccccc1Sc1ccc2c(/C=C/c3ccccn3)n[nH]c2c1 [Reference Example 35(a), 6-[2-(n-Propylcarbamoyl)phenylsulfanyl]-3-E-[2-(pyridin-2-yl)ethenyl]-1H-indazole]
- inhibition at 1 µM (human FGF-R1): 59%
- inhibition at 1 µM (LCK tyrosine kinase): 12%
- IC50 [4, 9]: 2.1 nM
- % remain (HLM, 2 h) (in vitro; [10]): 33%
- % Inhibition [1, 7]: 4%
- inhibition at 0.05 µM [3]: 76%

SMILES: O=C(NC1CCC1)c1ccccc1Sc1ccc2c(/C=C/c3ccccn3)n[nH]c2c1 [Reference Example 35(c), 6-[2-(Cyclobutylcarbamoyl)phenylsulfanyl]-3-E-[2-(pyridin-2-yl)ethenyl]-1H-indazole]
- inhibition at 1 µM (human FGF-R1): 42%
- inhibition at 1 µM (LCK tyrosine kinase): 11%
- IC50 [4, 9]: 6.3 nM
- % remain (HLM, 2 h) (in vitro; [10]): 17%
- % Inhibition [1, 7]: 0%
- inhibition at 0.05 µM [3]: 76%

SMILES: C=CCONC(=O)c1ccccc1Sc1ccc2c(/C=C/c3ccccn3)n[nH]c2c1 [Reference Example 35(j), 6-[2-(Allyloxycarbamoyl)phenylsulfanyl]-3-E-[2-(pyridin-2-yl)ethenyl]-1H-indazole]
- % Inhibition [1, 7]: 7%

SMILES: O=C(NCC1CC1)c1ccccc1Sc1ccc2c(/C=C/c3ccccn3)n[nH]c2c1 [Reference Example 35(v), 6-[2-(Cyclopropylmethyl-carbamoyl)phenylsulfanyl]-3-E-[2-(pyridin-2-yl)ethenyl]-1H-indazole]
- inhibition at 1 µM (human FGF-R1): 59%
- inhibition at 1 µM (LCK tyrosine kinase): 11%
- IC50 [4, 9]: 22 nM
- % remain (HLM, 2 h) (in vitro; [10]): 26%
- % Inhibition [1, 7]: 20%
- inhibition at 0.05 µM [3]: 72%

SMILES: Cc1cc(C(=O)Nc2cccc(C(=O)c3ccc4c(/C=C/c5ccccn5)n[nH]c4c3)c2)n[nH]1 [Reference Example 41(g), 6-[3-((5-methyl-1H-pyrazol-3-yl)carboxamido)benzoyl]-3-E-[2-(pyridin-2-yl)ethenyl]-1H-indazole]
- inhibition at 1 µM (human FGF-R1): 95%
- inhibition at 1 µM (LCK tyrosine kinase): 36%
- IC50 [4, 9]: > 10 nM
- IC50 ([4]; read-out: HUVEC IC50): 0.9 nM
- % remain (HLM, 2 h) (in vitro; [10]): 52%
- % Inhibition [1, 7]: 37%

- inhibition at 1 µM (human FGF-R1): 49%
- inhibition at 1 µM (LCK tyrosine kinase): 20%
SMILES: O=C(c1cccc(NC(=O)C2CC2)c1)c1ccc2c(/C=C/c3ccccn3)n[nH]c2c1 [Reference Example 41(k), 6-[3-(cyclopropylcarboxamido)benzoyl]-3-E-[2-(pyridin-2-yl)ethenyl]-1H-indazole]
- IC50 [4, 9]: 48 nM
- % Inhibition [1, 7]: 1%

SMILES: Cc1cc(C(=O)Nc2cccc(C(=O)c3ccc4c(/C=C/c5ccccn5)n[nH]c4c3)c2)on1 [Reference Example 41(m), 6-[3-((3-methylisoxazol-5-yl)carboxamido)benzoyl]-3-E-[2-(pyridin-2-yl)ethenyl]-1H-indazole]
- inhibition at 1 µM (human FGF-R1): 67%
- inhibition at 1 µM (LCK tyrosine kinase): 40%
- IC50 [4, 9]: 23 nM
- % remain (HLM, 2 h) (in vitro; [10]): 0%
- % Inhibition [1, 7]: 10%

SMILES: Cc1cc(C(=O)Nc2cc(C(=O)c3ccc4c(/C=C/c5ccccn5)n[nH]c4c3)c(C)cc2C)n(C)n1 [Reference Example 41(mm), 6-[2,4-dimethyl-5-((1,3-dimethyl-1H-Pyrazol-5-yl)carboxamido)benzoyl]-3-E-[2-(pyridin-2-yl)ethenyl]-1H-indazole]
- Initial Evaluation [1, 7]: + (one plus being detectable regression judged to be approximately 25 percent or less)

SMILES: Cn1nc(C(C)(C)C)cc1C(=O)Nc1cccc(C(=O)c2ccc3c(/C=C/c4ccccn4)n[nH]c3c2)c1 [Reference Example 41(n), 6-[3-((3-t-butyl-1-methyl-1H-pyrazol-5-yl)carboxamido)benzoyl]-3-E-[2-(pyridin-2-yl)ethenyl]-1H-indazole]
- inhibition at 1 µM (human FGF-R1): 87%
- inhibition at 1 µM (LCK tyrosine kinase): 66%
- % remain (HLM, 2 h) (in vitro; [10]): 70%
- % Inhibition [1, 7]: 2%

Source: patent EP1614683B1, “Indazole compounds and pharmaceutical compositions for inhibiting protein kinases, and methods for their use” (priority 1999, dated 2001)
